Assay results as given in patent US7829063B2, “Development of molecular imaging probes for carbonic anhydrase-IX using click chemistry” (Siemens Medical Solutions USA, Inc., priority 2007, dated 2010).

Columns and labels:
CA-IX [1] = target: T1, CA-IX (Homo sapiens, UniProt Q16790); test: Binding affinity (Kd) determination for CA-IX inhibitors, DNSA fluorescence competition assay, Scatchard plots; conditions: Table 3
T1 construct: His tag (C); purchased R&D Systems Inc. 2188-CA; host or cells: mouse myeloma cell line NS0
Method: General. […] The human red blood cells were obtained from Research Blood Components, LLC. All absorbance measurements were performed on a SPECTRA MAX M2 plate reader at 25° C. The LC/MS analyses were performed on an Agilent 1100 series LC/MSD (SL) using a 30×2.1 mm Zorbax C8 column with a Phenomenex C18 pre-column. Compound detection was accomplished by electrospray mass spectroscopy in positive selected ion mode (LC/MS-SIM). The elution solvents were acetonitrile and water, contained 0.05% TFA. Nuclear magnetic resonance (NMR) spectra were obtained on a Bruker AMX 300 MHz spectrometer or a Varian 400. 19F NMR spectra were recorded on a Bruker AMX 282.35 MHz or a Varian 400 spectrometer. The mass spectra were recorded on an Agilent 1100 series LC/MSD with electrospray mass spectroscopic detection. Flash column chromatography was performed on Merck silica gel (40-63 μm) using the solvent system indicated. The radiochemical and chemical purities were analyzed by RP-HPLC.
General Procedure of Binding Affinity (Ka) Determination for CA-IX Inhibitors
The assay was based on the observation that the only fluorescence signal detected at 460 nm upon excitation at 290 nm, an absorption […] for DNSA, was that of the DNSA.CA complex. […] The latter were developed for each test compound using mass balance for calculating the concentration of CA bound to DNSA [DNSA.CA], bound to the non-fluorescent sample [CA.Inh] and free CA [CA] in solution. The Kd values were determined from Scatchard plots using the equation below as described by Whitesides et al. [CA.Inh]/[CA]tot.[Inh]=K11^inh−K11^inh{[CA.Inh]+[CA.DNSA]}/([CA]tot)
The terms [CA.DNSA], [CA.Inh], and free CA were calculated using the mass balance based on the known values for the dissociation constant of CA.DNSA and the total concentration of CA in each reaction.

CA-IX [2] = target: T1, CA-IX; test: CA-IX combinatorial library screening, competitive fluorescence-based assay with dansylamide (DNSA); format: binding; conditions: Table 1, Libraries 1-3; sample concentrations 100 nM and 1000 nM, DNSA 200 μM; screening at 1 μM
Summary of the method: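 Recombinant His-tagged CA-IX (NS0-expressed) in phosphate buffer pH 7.4 with test compound at 100 nM or 1000 nM; competitive displacement started with 200 μM dansylamide (stock concentration). After 1 h at 25 °C, fluorescence read at 460 nm (excitation 290 nm).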

Structure (SMILES)	Kd (CA-IX [1]) [nM]	In Vitro Binding Assay (Library Screening) (CA-IX [2])
CC(C)[C@@H](C(=O)NCC1COc2ccccc2O1)n1cc(COc2ccc3nc(S(N)(=O)=O)sc3c2)nn1 (some centres unmarked) [DHK2-44]	5	
NCC1OC(C(=O)NCCOc2cccc(COCC(NC(=O)Cn3cc(COc4ccc5nc(S(N)(=O)=O)sc5c4)nn3)C(=O)O)c2)C(O)C(O)C1O (centres unmarked) [DHK3-155]	11	
NS(=O)(=O)c1nc2ccc(OCc3cn([C@@H](Cc4ccccc4)C(=O)NCC4COc5ccccc5O4)nn3)cc2s1 (some centres unmarked) [DHK2-71]	2.5	
NS(=O)(=O)c1nc2ccc(OCc3cn(CC(=O)NC(COCc4cccc(OCCNC(=O)CN(CCO)CCO)c4)C(=O)O)nn3)cc2s1 (centres unmarked) [DHK3-158]	14	
CC(C)[C@@H](C(=O)NCc1ccc(CN(C)C)o1)n1cc(-c2ccc(S(N)(=O)=O)cc2)nn1 [DHK2-95]	25	
CC(C)C(C(=O)N[C@@H](Cc1ccc(OC(CO)CF)cc1)C(=O)O)n1cc(COc2ccc3nc(S(N)(=O)=O)sc3c2)nn1 (single isomer, unassigned) [GGC121A]	11	
NS(=O)(=O)c1nc2ccc(OCc3cn([C@@H](Cc4ccc(OCCF)cc4)C(=O)N4CCC(C(=O)O)CC4)nn3)cc2s1 [DHK2-120]	5	
NS(=O)(=O)c1nc2ccc(OCc3cn([C@@H](Cc4ccc(OCCF)cc4)C(=O)NCc4ccc(OC(F)(F)F)cc4)nn3)cc2s1 [DHK2-176]	5	
N[C@@H](CO)C(=O)NCCCC[C@@H](C(=O)NCc1ccc(C(F)(F)F)cc1)n1cc(COc2ccc3nc(S(N)(=O)=O)sc3c2)nn1 [DHK2-157]	25	
CC1(C)O[C@@H](CF)[C@H](COc2ccc(CC(C(=O)NC(Cc3ccc(C(F)(F)F)cc3)C(=O)O)n3cc(COc4ccc5nc(S(N)(=O)=O)sc5c4)nn3)cc2)O1 (some centres unmarked) [BW-139-1A]	1.7	

Continued, values first:

Kd (CA-IX [1]) [nM]	In Vitro Binding Assay (Library Screening) (CA-IX [2])	Structure (SMILES)
20	√	NS(=O)(=O)c1ccc(-c2cn(Cn3nnc4ccccc43)nn2)cc1 [DHK29]
12.5	√	Cc1ccc(CNC(=O)[C@H](C(C)C)n2cc(COc3ccc4nc(S(N)(=O)=O)sc4c3)nn2)cc1F [DHK123]
25	√	NS(=O)(=O)c1nc2ccc(OCc3cn(Cc4cccc(Br)c4)nn3)cc2s1 [DHK121]
12.5	√	NS(=O)(=O)c1nc2ccc(OCc3cn(Cn4nnc5ccccc54)nn3)cc2s1 [DHK128]
14.1	√	CC(C)C(C(=O)NCc1cc(F)ccc1F)n1cc(COc2ccc3nc(S(N)(=O)=O)sc3c2)nn1 (centres unmarked) [DHK117]
25	√	CC(C)[C@@H](C(=O)NCc1ccco1)n1cc(COc2ccc3nc(S(N)(=O)=O)sc3c2)nn1 [DHK127]
14	√	NS(=O)(=O)c1ccc(-c2cn(Cn3c(=S)sc4ccccc43)nn2)cc1 [DHK19]
5	√ √	CC(C)[C@H](C(=O)NCc1ccco1)n1cc(-c2ccc(S(N)(=O)=O)cc2)nn1 (stereo in doubt) [DHK25]
10	√ √	COC(=O)[C@H](CSCc1ccccc1)NC(=O)Cn1cc(COc2ccc3nc(S(N)(=O)=O)sc3c2)nn1 [DHK113]
16.7	√	CCOC(=O)c1ccc(Cn2cc(COc3ccc4nc(S(N)(=O)=O)sc4c3)nn2)cc1 [DHK125]
17	√	Cc1ccnc(NC(=O)[C@H](Cc2ccccc2)n2cc(-c3ccc(S(N)(=O)=O)cc3)nn2)c1 [DHK7]
3.3		CC(C)[C@@H](C(=O)N[C@@H](Cc1ccc(OCCO)cc1)C(=O)O)n1cc(COc2ccc3nc(S(N)(=O)=O)sc3c2)nn1 [VM4021, (S)-3-(4-(2-hydroxyethoxy)phenyl)-2-((S)-3-methyl-2-(4-((2-sulfamoylbenzo[d]thiazol-6-yloxy)methyl)-1H-1,2,3-triazol-1-yl)butanamido)propanoic acid]
1.3		CC(C)[C@@H](C(=O)N[C@@H](Cc1ccc(OCCF)cc1)C(=O)O)n1cc(COc2ccc3nc(S(N)(=O)=O)sc3c2)nn1 [VM4037a, (S)-3-(4-(2-fluoroethoxy)phenyl)-2-((S)-3-methyl-2-(4-((2-sulfamoylbenzo[d]thiazol-6-yloxy)methyl)-1H-1,2,3-triazol-1-yl)butanamido) propanoic acid]
5		NS(=O)(=O)c1nc2ccc(OCc3cn(CC(=O)N[C@@H](Cc4ccc(OCCO)cc4)C(=O)O)nn3)cc2s1 [VM4009, (S)-3-(4-(2-hydroxyethoxy)phenyl)-2-(2-(4-((2-sulfamoylbenzo[d]thiazol-6-yloxy)methyl)-1H-1,2,3-triazol-1-yl)acetamido)propanoic acid]
